According to patent US20230190718A1, “METHODS FOR THE TREATMENT OF PANCREATITIS AND PREVENTION OF PANCREATIC CANCER” (BOARD OF REGENTS, THE UNIVERSITY OF TEXAS SYSTEM, priority 2020, published 2023):
“Also recorded” adds a separate entry of the source.

Test system: Caerulein-induced pancreatitis
Assay: Pretreatment with ADM inducers in caerulein-induced pancreatitis: histology (ADM) and CD45 infiltration
Format: in vivo, mice
Conditions: 40 mg/kg b.i.d oral gavage before and during Caerulein; 24 hours after end of Caerulein injections
From the text: Epigenetic modifiers: Recently, the emerging role of epigenetic regulation has led to the development of a wide spectrum of small molecules targeting selectively bromodomain and extra-terminal (BET) protein family which are currently under evaluation in preclinical model of hematological malignancies and solid tumors (Asangani et al., 2014; Delmore et al., 2011; Filippakopoulos et al., 2010). Leveraging the persistent chromatin modifications induced by an acute inflammatory event, the possibility of limiting the detrimental effects of repeated pancreatitis was tested through the administration of INCB054329, a BRD4 inhibitor currently in phase I-II clinical studies in patients with advanced malignancies (Falchook et al., 2019).
Induction of acute pancreatitis. […] Control mice received injections of pyrogen-free PBS. Mice were examined daily for health conditions and sacrificed at the indicated time points by CO2 asphyxiation and cervical dislocation.
DAPI nuclear counterstaining was also performed.

## Cc1noc(C)c1-c1ccc2[nH]c(=O)n3c2c1OC[C@@H]3c1ccccn1 [INCB054329]
  ADM induction (histological evaluation): massive induction of ADM; also recorded: significant ADM induction
  inflammatory infiltration (CD45 immunostaining): dramatic reduction of inflammatory infiltration; also recorded: strong suppression of inflammation
